Laboratory results published in patent US9630894B2, “Energy efficient method and apparatus for the extraction of biomolecules from dilute aqueous solution” (DYNASEP INC., priority 2012, dated 2017).
Each block holds one molecule with its values, some of them ahead of it.

Test: CCC extraction with DME of clarified fermentation broth from Clostridium acetobutylicum, GC and DNS assay
Assay type: physicochemical
Procedure: This example describes three different runs of the CCC with fermentation broth from Clostridium acetobutylicum. […] The fermentation was intentionally interrupted prior to completion.
The extraction column operated at room temperature (˜25° C.) throughout the column. Periodic extract and raffinate samples were taken and analyzed for the constituents in the extract and raffinate discharges.
This example describes three different runs. In all cases, the mass of solvent to the mass of feed ratio (S/F) was 0.9. In all example the fermentation broth was first centrifuged to removal all cellular matter. Thus, the feed solution was clarified. In the case of the first run, the following components were measured via gas chromatograph (GC) analysis using external standard calibration. The external standard was run prior to analyzing the samples to provide individual calibration between peak area and the respective constituent under measure. […] Acetate was the conjugate base of acetic acid. Butyrate was the conjugate base of butyric acid. All components were quantified in the extract and raffinate. Since the extract and raffinate are mostly water and DME dissolves in water to approximately 20 wt. %, the samples were allowed to degas over a 24 hour period.
During the run, samples were taken of the extract and raffinate. In the case of the extract, the bulk DME was removed by reduction of pressure and addition of heat to flash the DME from the water and other solution constituents.
Extract and raffinate samples were collected at periodic intervals during the CCC testing. […] Glucose was measured via a DNS (3,5-dinitrosalicylic acid) assay.
In cases where the extract formed a two phase solution, the extract samples were diluted with distilled water to create a single phase and homogenous sample prior to GC. The dilution factor was then used to correct the GC measurements for concentrations prior to dilution.

[1] = Run 3, Extract Bot, time 31 min
[2] = Run 3, Extract Bot, time 37 min
[3] = Run 3, Extract Top, time 31 min
[4] = Run 3, Extract Top, time 37 min

extraction into DME (Run 1, pH greater than 5.5): not extracted
concentration in sample [1]: 480 µg/mL
concentration in sample [2]: 0 µg/mL
concentration in sample [3]: 400 µg/mL
concentration in sample [4]: 370 µg/mL
concentration in sample (Run 3, Extract, time 22 min): 410 µg/mL
concentration in sample (Run 3, Extract, time 27 min): 0 µg/mL
concentration in sample (Run 3, Extract, time 43 min): 480 µg/mL
concentration in sample (Run 3, Extract, time 70 min): 400 µg/mL
concentration in sample (Run 3, Extract, time 74 min): 0 µg/mL
concentration in sample (Run 3, Extract, time 78 min): 550 µg/mL
concentration in sample (Run 3, Extract, time 82 min): 400 µg/mL
concentration in sample (Run 3, Feed, time 0 min): 5470 µg/mL
concentration in sample (Run 3, Raffinate, time 22 min): 6780 µg/mL
concentration in sample (Run 3, Raffinate, time 27 min): 5370 µg/mL
concentration in sample (Run 3, Raffinate, time 31 min): 6420 µg/mL
concentration in sample (Run 3, Raffinate, time 37 min): 6010 µg/mL
concentration in sample (Run 3, Raffinate, time 43 min): 7110 µg/mL
concentration in sample (Run 3, Raffinate, time 70 min): 6840 µg/mL
concentration in sample (Run 3, Raffinate, time 74 min): 7770 µg/mL
concentration in sample (Run 3, Raffinate, time 78 min): 7070 µg/mL
concentration in sample (Run 3, Raffinate, time 82 min): 7290 µg/mL
Molecule: CC(=O)O [acetate]

extraction into DME (Run 1, pH greater than 5.5): About half
concentration in sample [1]: 1570 µg/mL
concentration in sample [2]: 1240 µg/mL
concentration in sample [3]: 22090 µg/mL
concentration in sample [4]: 22520 µg/mL
concentration in sample (Run 3, Extract, time 22 min): 3520 µg/mL
concentration in sample (Run 3, Extract, time 27 min): 9290 µg/mL
concentration in sample (Run 3, Extract, time 43 min): 2210 µg/mL
concentration in sample (Run 3, Extract, time 70 min): 1710 µg/mL
concentration in sample (Run 3, Extract, time 74 min): 1380 µg/mL
concentration in sample (Run 3, Extract, time 78 min): 3010 µg/mL
concentration in sample (Run 3, Extract, time 82 min): 1880 µg/mL
concentration in sample (Run 3, Feed, time 0 min): 1710 µg/mL
concentration in sample (Run 3, Raffinate, time 22 min): 50780 µg/mL
concentration in sample (Run 3, Raffinate, time 27 min): 19520 µg/mL
concentration in sample (Run 3, Raffinate, time 31 min): 880 µg/mL
concentration in sample (Run 3, Raffinate, time 37 min): 880 µg/mL
concentration in sample (Run 3, Raffinate, time 43 min): 880 µg/mL
concentration in sample (Run 3, Raffinate, time 70 min): 950 µg/mL
concentration in sample (Run 3, Raffinate, time 74 min): 970 µg/mL
concentration in sample (Run 3, Raffinate, time 78 min): 870 µg/mL
concentration in sample (Run 3, Raffinate, time 82 min): 930 µg/mL
Molecule: CCCC(=O)O [butyrate]

distribution coefficients compared (Run 2, isobutanol versus butanol): approximately equal
Ratio of I/N (isobutanol/n-butanol) [1]: 1.16
concentration in sample [1]: 39300 µg/mL
Ratio of I/N (isobutanol/n-butanol) [2]: 1.15
concentration in sample [2]: 39690 µg/mL
Ratio of I/N (isobutanol/n-butanol) [3]: 1.04
concentration in sample [3]: 316670 µg/mL
Ratio of I/N (isobutanol/n-butanol) [4]: 1.03
concentration in sample [4]: 328990 µg/mL
Ratio of I/N (isobutanol/n-butanol) (Run 3, Extract, time 22 min): 0.98
concentration in sample (Run 3, Extract, time 22 min): 18650 µg/mL
Ratio of I/N (isobutanol/n-butanol) (Run 3, Extract, time 27 min): 1.10
concentration in sample (Run 3, Extract, time 27 min): 35800 µg/mL
Ratio of I/N (isobutanol/n-butanol) (Run 3, Extract, time 43 min): 1.07
concentration in sample (Run 3, Extract, time 43 min): 35340 µg/mL
Ratio of I/N (isobutanol/n-butanol) (Run 3, Extract, time 70 min): 1.05
concentration in sample (Run 3, Extract, time 70 min): 30950 µg/mL
Ratio of I/N (isobutanol/n-butanol) (Run 3, Extract, time 74 min): 1.02
concentration in sample (Run 3, Extract, time 74 min): 31830 µg/mL
Ratio of I/N (isobutanol/n-butanol) (Run 3, Extract, time 78 min): 1.01
concentration in sample (Run 3, Extract, time 78 min): 33190 µg/mL
Ratio of I/N (isobutanol/n-butanol) (Run 3, Extract, time 82 min): 1.02
concentration in sample (Run 3, Extract, time 82 min): 37480 µg/mL
Ratio of I/N (isobutanol/n-butanol) (Run 3, Feed, time 0 min): 1.24
concentration in sample (Run 3, Feed, time 0 min): 11650 µg/mL
Ratio of I/N (isobutanol/n-butanol) (Run 3, Raffinate, time 22 min): 1.34
concentration in sample (Run 3, Raffinate, time 22 min): 2720 µg/mL
Ratio of I/N (isobutanol/n-butanol) (Run 3, Raffinate, time 27 min): 1.22
concentration in sample (Run 3, Raffinate, time 27 min): 380 µg/mL
Ratio of I/N (isobutanol/n-butanol) (Run 3, Raffinate, time 31 min): 1.28
concentration in sample (Run 3, Raffinate, time 31 min): 380 µg/mL
Ratio of I/N (isobutanol/n-butanol) (Run 3, Raffinate, time 37 min): 1.29
concentration in sample (Run 3, Raffinate, time 37 min): 230 µg/mL
Ratio of I/N (isobutanol/n-butanol) (Run 3, Raffinate, time 43 min): 1.42
concentration in sample (Run 3, Raffinate, time 43 min): 230 µg/mL
Ratio of I/N (isobutanol/n-butanol) (Run 3, Raffinate, time 70 min): 1.37
concentration in sample (Run 3, Raffinate, time 70 min): 430 µg/mL
Ratio of I/N (isobutanol/n-butanol) (Run 3, Raffinate, time 74 min): 1.45
concentration in sample (Run 3, Raffinate, time 74 min): 480 µg/mL
Ratio of I/N (isobutanol/n-butanol) (Run 3, Raffinate, time 78 min): 1.41
concentration in sample (Run 3, Raffinate, time 78 min): 480 µg/mL
Ratio of I/N (isobutanol/n-butanol) (Run 3, Raffinate, time 82 min): 1.44
concentration in sample (Run 3, Raffinate, time 82 min): 480 µg/mL
Molecule: CC(C)CO [isobutanol, 2-methyl-1-propanol]

concentration in sample [1]: 4740 µg/mL
concentration in sample [2]: 5780 µg/mL
concentration in sample [3]: 0 µg/mL
concentration in sample [4]: 0 µg/mL
concentration in sample (Run 3, Extract, time 22 min): 1460 µg/mL
concentration in sample (Run 3, Extract, time 27 min): 1440 µg/mL
concentration in sample (Run 3, Extract, time 43 min): 6200 µg/mL
concentration in sample (Run 3, Extract, time 70 min): 3940 µg/mL
concentration in sample (Run 3, Extract, time 74 min): 3870 µg/mL
concentration in sample (Run 3, Extract, time 78 min): 4810 µg/mL
concentration in sample (Run 3, Extract, time 82 min): 4950 µg/mL
concentration in sample (Run 3, Feed, time 0 min): 48470 µg/mL
concentration in sample (Run 3, Raffinate, time 22 min): 1390 µg/mL
concentration in sample (Run 3, Raffinate, time 27 min): 950 µg/mL
concentration in sample (Run 3, Raffinate, time 31 min): 47660 µg/mL
concentration in sample (Run 3, Raffinate, time 37 min): 41230 µg/mL
concentration in sample (Run 3, Raffinate, time 43 min): 48870 µg/mL
concentration in sample (Run 3, Raffinate, time 70 min): 42100 µg/mL
concentration in sample (Run 3, Raffinate, time 74 min): 44360 µg/mL
concentration in sample (Run 3, Raffinate, time 78 min): 48180 µg/mL
concentration in sample (Run 3, Raffinate, time 82 min): 43140 µg/mL
Molecule: sugar
extraction into DME (Run 2): a significant portion of the sugar was not extracted
